This note sets out measurements from article PMC9950073, “Alleviation of arthritis through prevention of neutrophil extracellular traps by an orally available inhibitor of protein arginine deiminase 4” (Scientific Reports, 2023).

In the data set the test system is collagen induced arthritis. Nature of the data set: Collagen induced arthritis model in DBA/1 mice. The data set is classed as in vivo. The conditions noted are these: Dexamethasone dose not given; for clinical score: JBI-589 50 mg/kg po BID day 0-45; for clinical score / bone erosion (histopathology) / joint inflammation (histopathology) / pannus formation (histopathology): Etanercept 25 mg/kg IP day 31–45.

Etanercept: the clinical score entry is recorded as “comparable inhibition”. Besides, where the note is “JBI-589 50 mg/kg po BID”, the “bone erosion (histopathology)” value is reported as “no appreciable effect”, the “joint inflammation (histopathology)” value is on record as “no appreciable effect” and the “pannus formation (histopathology)” value is “no appreciable effect”.

As to `C[C@@H]1C[C@H]2[C@@H]3CCC4=CC(=O)C=C[C@]4(C)[C@@]3(F)[C@@H](O)C[C@]2(C)[C@@]1(O)C(=O)CO` [Dexamethasone], the clinical score entry is reported as “strong inhibition”. Besides, for the setting “JBI-589 50 mg/kg po BID”, the “bone erosion (histopathology)” value is reported as “significantly decreased”, the “joint inflammation (histopathology)” value is given as “significantly decreased” and the “pannus formation (histopathology)” value is “significantly decreased”. The spleen weight entry (day 45, JBI-589 50 mg/kg po BID) is on record as “stronger reduction”. The body weight entry (end of study, JBI-589 50 mg/kg po BID) is “stronger reduction”.
